Experimental data: patent US12343349B2, “Imipramine for use as an inhibitor of Fascin1 overexpression” (FUNDACION UNIVERSITARIA SAN ANTONIO, priority 2018, dated 2025)
Read-outs that look alike come from different tables or passages of the source.

Assays:
[1] = test system: DLD1 colorectal cancer cell line; test: Cell migration (wound healing) assay, DLD1; format: cell-based, human; conditions: for Migration (%): DLD1, slope 4-7 h relative to control, imipramine 20 μM, migrastatin 100 μM
Procedure: (§1) Except for SW-480, imipramine effect was more pronounced than migrastatin, especially for DLD-1. Cell migration was studied with the three cell lines by performing the wound healing assay in the presence of 5% FBS. Cancer colorectal cells (50,000 cells) were plated in low 35-mm-dishes with culture inserts (Ibidi, Martinsried, Germany). After appropriate cell attachment and monolayer formation (around for 24 h), inserts were then removed with sterile forceps to create a wound field of approximately 500 μm, according to the manufacturer protocol. Detached cells were gently removed with phosphate buffered saline (PBS, Dubelco) before the addition of drugs. Confluent cells were incubated in one of the following treatments: 100 μM migrastatin (AnalytiCon Discovery, cat. No. NP-006108), and 20 μM imipramine ((purchased via Molport, Letonia) and, control dishes that were incubated in the presence of 0.1% DMSO. Cells were then allowed to migrate in a cell culture incubator for 24 h. At 0, 3, 5 and 7 h (linear growth phase), 10 fields of the injury area were photographed with an inverted and phase contrast microscopy at ×10 magnification incorporating a CCD camera. For each timepoint, the area uncovered by cells was determined by an image processing free software analysis with Image J software program.
(§2) The migration speed of the wound closure is given as the percentage of the recovered area at each time point, relative to the initially covered area (0 h). The velocity of wound closure (%/h) was calculated according to the formula: Slope (%/h)=((% covered area t_x)−(% covered area t_0))/((tx−t_0)). Slopes are then expressed as percentages relative to control conditions.

[2] = test system: HCT-116 colorectal cancer cell line; test: Cell migration (wound healing) assay, HCT-116; format: cell-based, human; conditions: for Migration (%): slope 4-7 h relative to control, imipramine 20 μM, migrastatin 100 μM
Procedure: as §1, §2

[3] = test system: SW-480 colorectal cancer cell line; test: Cell migration (wound healing) assay, SW-480; format: cell-based, human; conditions: for Migration (%): slope 4-7 h relative to control, imipramine 20 μM, migrastatin 100 μM
Procedure: as §1, §2

[4] = test system: colorectal cancer cell lines (DLD-1 and HCT-116) injected in zebra fish; test: Zebra fish larvae invasion model (xenograft); format: in vivo; conditions: DLD-1 and HCT-116 cells treated and injected in larvae
Procedure: Finally, in order to find out whether the anti-invasive properties of imipramine could be extrapolable to an animal system, the well-established zebra fish larvae invasion model was used. A xenograft assay was carried out by stained with fluorescent CM-Dil (Vibrant, Invitrogen) two colorectal cancer cell lines (DLD-1 and HCT-116) and injected in zebra fish. The result obtained is referred to the percentage of cell invasion.
Injection and migration of different colorectal cancer cell lines in zebra fish model (A). Two colorectal cancer cell lines (DLD-1 and HCT-166) were treated with migrastatin and imipramine and injected in zebra fish larvae.

[5] = test system: HCT-116 colorectal cell line; test: Myoma organotypic invasion model; format: cell-based, human; conditions: HCT-116, 14 days, compared to control
Procedure: To improve the reliability of the experimental model compared to the real tumor microenvironment, cancer cell invasion was assessed in the myoma organotypic cultures and performed according to the previously published myoma model (Åström, P., Heljasvaara, R., Nyberg, P., Al-Samadi, A., & Salo, 2018). Briefly, uterine leiomyoma tissues were obtained from routine surgery after informed consent of the donors and their use approved by The Ethics Committee of the Oulu University Hospital. The myoma tissue was sliced into 5 mm and disks were made with an 8-mm biopsy punch (Kai Industries Co., Gifu, Japan). Myoma disks were pre-incubated in 100 μM MGS, 10 μM and 20 μM imipramine or 0.1% DMSO-DMEM treatments at +4° C. for 48 h. The myoma disks were placed into Transwell inserts (diameter 6.5 mm; Corning Incorporated, Corning, NY) and 700,000 cells in 50 μl of media were added on top of each myoma disk. The cells were allowed to attach overnight and the myoma disks were transferred onto uncoated nylon disks resting on curved steel grids in 12-well plates with 12 well plates with 1 ml of media plus migrastatin and imipramine in each well. The cancer cells were left to invade the myoma disks for 14 days, while changing the treatment media every 3 days. Subsequently the myoma discs were fixed with 4% neutral buffered formalin at room temperature for 24 h, and processed for histology. […]

HCT116 cell line = test: Immunofluorescence of fascin1 localization and lamellipodia formation; format: cell-based, human; conditions: for filopodia lamellipodium formation: 24 h, migrastatin 100 μM, imipramine 20 μM, PD98059 50 μM, EGF 10 ng/ml; for Lamellipodia protrusion number: data not shown
Procedure: In order to assess the effect of imipramine on fascin1 localization and lamelipodia formation an immunofluorescence assay was performed. Round coverslips (Thermo Fisher, Waltham, MA USA) were seeded with HCT116 cell line in the presence of 10% FBS. After cells reached 100% confluence, serum supplemented medium was removed and replaced with fresh serum free medium for 24 h. Artificial wounding was performed by transversally dragging a sterilized razor blade on the central area of the coverslips. Coverslips were then placed in 6-well plate with 2 mL serum free DMEM and 100 μM migrastatin, 20 μM imipramine, Epidermal Growth Factor (EGF) 10 ng/ml and MEK inhibitor PD98059 50 μM (MEKi) (both from Sigma-Aldrich, St Louis, MO, USA) for 24 h. Cells were then fixed with Bouin (for fascin1 protein) or 4% formaldehyde (for actin protein) and subsequently permeabilized in a 0.3% Triton X-100/PBS solution, and then exposed to blocking buffer for 30 min. Samples were incubated for 1 h with anti-fascin1 antibody (1/250) (55K-2 clone; Santa Cruz Biotechnology, Heidelberg, Germany) or anti-β actin antibody (1/1000) (Sigma-Aldrich, St Louis, MO, USA) in a wet chamber.
Appropriate fluorescent-labelled primary antibodies were incubated later with Alexa fluor 488-conjugated anti-mouse IgG (from donkey) (1/400) or Alexa fluor 594-labelled phalloidin, respectively (1/1000) (Molecular Probes, Thermo Fisher Scientific, Waltham, MA USA) and Hoechst 33258 (Fluka, Biochemika, Sigma-Aldrich, St Louis, MO, USA) for 30 min at room temperature and darkness. Samples were examined and representative images were taken with a confocal microscope (LSM 510 META from ZEISS, Jena, Germany). The effect of imipramine on the fascin1 localization and the reorganization of the actin cytoskeleton, which includes the protrusion of the lamellipodium at the cell front filopodia formation and fascin1 localization, was assessed by immunofluorescence.

fascin1 [6] = biological target: T1, fascin1 (Homo sapiens, UniProt Q16658); test: Fluorescence titration; format: binding; conditions: 25° C., 10% DMSO, 100 mM NaCl, 20 mM Hepes, pH 7.4; read-out: dissociation constant Kd
T1 construct: purchased Hypermol, Bielefeld, Germany 8411-02
Procedure: Fascin1 was extensively dialized against the appropriate buffer prior to each titration experiment. Fascin1 concentration was determined by measuring absorbance at 280 nm using an extinction coefficient of 67840 cm-1-M-1. Fluorescence titration experiments were performed in a Cary Eclipse spectrofluorimeter (Varian Inc.). A 15 μM (14.7 μM) fascin1 solution was titrated with each compound by adding increasing volumes of concentrated solutions. Emission spectra were recorded between 307 and 500 nm at 25° C. in 10% DMSO, 100 mM NaCl, 20 mM Hepes, pH 7.4, with the excitation wavelength fixed at 280 nm. Binding isotherms were generated using either the changes in spectral area or in spectral centre of mass (CM), depending whether the change was only in fluorescence intensity or was also in the maximum emission wavelength.
The resulting curves were fitted using ORIGIN 7.0 (Microcal Inc.) and a one-site equilibrium binding model, according to the following equation:
[formula] Ff and Fb are the fluorescence signal (area or CM) of free and bound fascin1 and PT and LT are the total protein and ligand concentration, respectively, at each addition point. Tm values were measured as the minimum of the first derivative of the thermal unfolding profile. […]

fascin1 [7] = biological target: T1, fascin1; test: Differential Scanning Fluorimetry (Thermofluor) thermal shift assay; format: binding; conditions: for ΔTm at 1000 µM: vs free fascin1
Procedure: Differential Scanning Fluorimetry (Thermofluor) assays were performed using a Biorad C1000 Touch Thermal Cycler CFX96 RT-PCR system in a 96-well format.
Imipramine was prepared at 10 mM in 100% DMSO and added to each well to a final concentration of 1 mM and 10% DMSO. Three replicates with six internal controls, containing only free protein in 10% DMSO, were included in the 96-well plates. The PCR plates were covered and subsequently shaken, centrifuged, incubated for 2 min at 20° C. inside the RT-PCR machine and heated from 20 to 100° C. at a 1° C./min scan-rate. Fascin1 thermal denaturation profiles were obtained recording the fluorescence intensity for the FAM, HEX and T-Red predefined filters. The derivative of the fluorescence curve was used to determine the Tm. Changes in Tm associated to ligand binding were estimated taking the average Tm value derived from the free protein internal controls.
[formula] Ff and Fb are the fluorescence signal (area or CM) of free and bound fascin1 and PT and LT are the total protein and ligand concentration, respectively, at each addition point. Tm values were measured as the minimum of the first derivative of the thermal unfolding profile.

HCT116 cells = test: Transwell invasion assay on Matrigel; format: cell-based, human; conditions: 30 hours; migrastatin 100 μM, imipramine 20 μM
Procedure: Tumor cell invasion not only involved the acquisition of migration properties but also the ability to degrade the extracellular matrix (ECM). For that reason, we performed a Transwell assay on Matrigel which resembles the ECM composition. The invasive capacities of HCT116 cells were determined using Cytoselect TM 24 Well Cell Invasion Assay (Basement Membrane Colorimetric Format) with coated Transwell chambers (8 μm pore size). Briefly, cells were resuspended with serum-free medium and treated with corresponding inhibitors (migrastatin 100 μM and, imipramine 20 μM). Cells (9.5×10^4) were seeded into the upper chamber, and in the lower chamber 500 μL of DMEM containing 10% FBS were added. After 30 hours of incubation, cells that remained on the upper chamber were scraped away with a cotton swab, and cells that migrated to the bottom of the filter were stained with the cell stain solution. The number of invaded cells was photographed under an inverted phase contrast microscope and quantified D.O.D by a spectrophotometer at λ=560 nm. Also we analyzed the invasive cells using the Image J software. […] A) Invasiveness of cells after treatment with different drugs. Pictures were taken under an inverted phase contrast microscope. The magnification was ×200 and scale bars=50 μm. B) Quantification of the invasive cells D.O. by a spectrophotometer at A=560 nm. […]

Compound | Migration (%) [1] | inhibition of migration ([1]; DLD-1, 20 μM, p<0.05) | inhibition of migration ([2]; 20 μM, p<0.05) | Migration (%) [2] | inhibition of migration ([3]; 20 μM, p<0.05) | Migration (%) [3] | cell invasion in zebra fish larvae [4] | area of invasion [5] | depth of invasion [5] | filopodia lamellipodium formation (HCT116 cell line) | Lamellipodia protrusion number (HCT116 cell line) | Kd (fascin1 [6]) | Tm, FAM (fascin1 [7]; 1 mM compound, 2 μM fascin1, FAM filter) | ΔTm at 1000 µM (fascin1 [7]; 1 mM compound, 2 μM fascin1, FAM filter, read-out: ΔTm, FAM) | Tm, HEX (fascin1 [7]; 1 mM compound, 2 μM fascin1, HEX filter) | ΔTm at 1000 µM (fascin1 [7]; 1 mM compound, 2 μM fascin1, HEX filter, read-out: ΔTm, HEX) | Tm, TRed (fascin1 [7]; 1 mM compound, 2 μM fascin1, T-Red filter) | ΔTm at 1000 µM (fascin1 [7]; 1 mM compound, 2 μM fascin1, T-Red filter, read-out: ΔTm, TRed) | increase in Tm (fascin1 [7]; text summary over filters) | HCT-116 cell invasive ability (transwell) (HCT116 cells)
CN(C)CCCN1c2ccccc2CCc2ccccc21 [imipramine, 3-(10,11-dihydro-5H-dibenzo[b,f]azepin-5-yl)-N,N-dimethylpropan-1-amine] | 23.21% | remarkable inhibition of migration | remarkable inhibition of migration | 43.25% | remarkable inhibition of migration | 77.52% | diminishing cell invasion is evident | inhibits | inhibits | absent | significantly lower | 390 µM | 58.3 ± 0.6 °C | 2.7 ± 1.1 °C | 58.0 ± 0.0 °C | 2 °C | 58.0 ± 0.0 °C | 1.8 ± 0.6 °C | about 2 °C | inhibit tumor cell migration
EGF: Epidermal Growth Factor (migration stimulator) | – | – | – | – | – | – | – | – | – | prominent filopodia lamellipodium formation | – | – | – | – | – | – | – | – | – | –
COc1cccc(-c2cc(=O)c3ccccc3o2)c1N [PD98059] | – | – | – | – | – | – | – | – | – | absent | – | – | – | – | – | – | – | – | – | –
CO[C@H]1/C=C/CC/C=C/C(=O)O[C@H]([C@H](C)C(=O)CCCC2CC(=O)NC(=O)C2)/C(C)=C\[C@@H](C)[C@@H]1O [migrastatin] | 67.91% | – | – | 44.59% | – | 70.34% | – | – | – | absent | significantly lower | – | – | – | – | – | – | – | – | inhibit tumor cell migration
